According to publication PMC8121435, “Cork-in-bottle mechanism of inhibitor binding to mammalian complex I” (Science Advances, 2021):

Tests used:
human DHODH = system: human DHODH; design: method as in PMID 15044733, PMID 9313772; conditions: His-to-Ala mutation of the π-stacking partner; cited from earlier work
[1] = system: human cell line models and representative cell lines from mammalian species; design: method as in PMID 29892070; conditions: mouse, monkey, dog and rat cell lines; cited from earlier work
[2] = target: T1, complex I in mitochondrial membranes (Mus musculus, UniProt P03888+Q91WD5+Q9DC70); assay: NADH oxidation in mouse mitochondrial membranes; type: biochemical; conditions: M. musculus membranes 20 μg ml−1; ± SE
T1 construct: from tissue; host or cells: mouse (C57BL/6) heart mitochondria
Description: (§1) All catalytic activity assays were conducted at 32°C in 96-well plates using a Molecular Devices Spectramax 384 plus plate reader. Catalysis was initiated by addition of 200 μM NADH and monitored at 340 and 380 nm (ε340–380 = 4.81 mM^−1 cm^−1). Linear rates were measured for all assays, inhibitors were added from dimethyl sulfoxide stock solutions as required, and inhibitor-insensitive rates (using either 1 μM piericidin A or 1.4 μM IACS-2858) were subtracted from each measured rate. Membrane samples were prepared as described previously ([17], [20], [59], [60]), diluted to 20 μg ml^−1 in 10 mM tris-SO4 (pH 7.5) and 250 mM sucrose, and supplemented with 3 μM horse heart cytochrome c (except for P. denitrificans, for which the activity is unaffected by the addition). Mouse, bovine, and yeast (Y. lipolytica) complex I were purified as described previously ([17], [20], [59]); diluted to 0.5 nM in 20 mM tris-HCl (pH 7.5), 0.15% asolectin, and 0.15% CHAPS; and assayed using either 200 μM dQ or 200 μM ubiquinone-1 (Sigma-Aldrich). Complex I was purified from P. denitrificans strain Pd1222 ([61]) and provided by O. D. Jarman (MRC Mitochondrial Biology Unit, University of Cambridge); it was assayed likewise but in 10 mM MES-HCl (pH 6.5), 25 mM NaCl, and 2 mM CaCl2. […]

[3] = target: T2, complex I in mitochondrial membranes (Bos taurus, UniProt P03887+P17694+P42026); assay: NADH oxidation in bovine mitochondrial membranes; type: biochemical; conditions: B. taurus membranes 20 μg ml−1; ± SE
T2 construct: Complex I from bovine heart were prepared; from tissue; host or cells: bovine heart mitochondria
Description: as §1

H292 cells = system: H292 cells; design: method as in PMID 29892070; conditions: Leu55 ND1 mutation to Phe in H292 cells; cited from earlier work
[4] = target: T3, complex I in bacterial membranes (Paracoccus denitrificans, UniProt P29916+P29918+P29920); assay: NADH oxidation in P. denitrificans bacterial membranes; type: biochemical; conditions: P. denitrificans membranes 20 μg ml−1
T3 construct: Complex I was purified from P. denitrificans strain Pd1222; endogenous in cells; host or cells: P. denitrificans strain Pd1222
Description: as §1

mouse complex I = target: T4, mouse complex I (Mus musculus, UniProt P03888+Q91WD5+Q9DC70); assay: NADH:decylubiquinone oxidoreduction by purified mouse complex I; type: biochemical
T4 construct: from tissue; host or cells: mouse (C57BL/6) heart mitochondria
Description: (§2) All catalytic activity assays were conducted at 32°C in 96-well plates using a Molecular Devices Spectramax 384 plus plate reader. Catalysis was initiated by addition of 200 μM NADH and monitored at 340 and 380 nm (ε340–380 = 4.81 mM^−1 cm^−1). Linear rates were measured for all assays, inhibitors were added from dimethyl sulfoxide stock solutions as required, and inhibitor-insensitive rates (using either 1 μM piericidin A or 1.4 μM IACS-2858) were subtracted from each measured rate. Membrane samples were prepared as described previously ([17], [20], [59], [60]), diluted to 20 μg ml^−1 in 10 mM tris-SO4 (pH 7.5) and 250 mM sucrose, and supplemented with 3 μM horse heart cytochrome c (except for P. denitrificans, for which the activity is unaffected by the addition). Mouse, bovine, and yeast (Y. lipolytica) complex I were purified as described previously ([17], [20], [59]); diluted to 0.5 nM in 20 mM tris-HCl (pH 7.5), 0.15% asolectin, and 0.15% CHAPS; and assayed using either 200 μM dQ or 200 μM ubiquinone-1 (Sigma-Aldrich). Complex I was purified from P. denitrificans strain Pd1222 ([61]) and provided by O. D. Jarman (MRC Mitochondrial Biology Unit, University of Cambridge); it was assayed likewise but in 10 mM MES-HCl (pH 6.5), 25 mM NaCl, and 2 mM CaCl2. Bovine SMPs were prepared as described previously ([61]) and diluted to 20 μg ml^−1 in 10 mM tris-SO4 (pH 7.5) and 250 mM sucrose for FET and RET assays. The RET assay was initiated using 1 mM NAD^+, 1 mM ATP, 10 mM succinate, 1 mM cyanide, and 2 mM MgSO4, in the absence of NADH. AOX from Trypanosoma brucei brucei was prepared as described previously ([23]). Complex I proteoliposomes were assayed using 10 mM Mops-KOH (pH 7.5), 50 mM KCl, and AOX (10 μg ml^−1).

[5] = target: T5, P. denitrificans complex I (Paracoccus denitrificans, UniProt P29916+P29918+P29920); assay: NADH:decylubiquinone oxidoreduction by purified P. denitrificans complex I; type: biochemical; conditions: dQ, pH 6.5
T5 construct: Complex I was purified from P. denitrificans strain Pd1222; endogenous in cells; host or cells: P. denitrificans strain Pd1222
Description: as §1

bovine complex I = target: T6, bovine complex I (Bos taurus, UniProt P03887+P17694+P42026); assay: NADH:decylubiquinone oxidoreduction by purified bovine complex I; type: biochemical; conditions: purified B. taurus complex I, dQ; ± SE
T6 construct: Complex I from bovine heart were prepared; from tissue; host or cells: bovine heart mitochondria
Description: as §1

complex I in bovine SMPs [6] = target: T7, complex I in bovine SMPs (Bos taurus, UniProt P03887+P17694+P42026); assay: Reverse electron transport (succinate oxidation-driven NAD+ reduction) in bovine heart submitochondrial particles; type: biochemical
T7 construct: Complex I from bovine heart were prepared; from tissue; host or cells: bovine heart mitochondria
Description: as §2

complex I in bovine SMPs [7] = target: T7, complex I in bovine SMPs; assay: Forward electron transport (NADH oxidation) in bovine heart submitochondrial particles; type: biochemical; conditions: NADH oxidation rate, ± SE
Description: as §1

[8] = target: T8, complex I in mitochondrial membranes (Yarrowia lipolytica, UniProt Q9B6E8+Q9UUT7+Q9UUU1); assay: NADH oxidation in Y. lipolytica mitochondrial membranes; type: biochemical
T8 sequence (Q9B6E8 1-341): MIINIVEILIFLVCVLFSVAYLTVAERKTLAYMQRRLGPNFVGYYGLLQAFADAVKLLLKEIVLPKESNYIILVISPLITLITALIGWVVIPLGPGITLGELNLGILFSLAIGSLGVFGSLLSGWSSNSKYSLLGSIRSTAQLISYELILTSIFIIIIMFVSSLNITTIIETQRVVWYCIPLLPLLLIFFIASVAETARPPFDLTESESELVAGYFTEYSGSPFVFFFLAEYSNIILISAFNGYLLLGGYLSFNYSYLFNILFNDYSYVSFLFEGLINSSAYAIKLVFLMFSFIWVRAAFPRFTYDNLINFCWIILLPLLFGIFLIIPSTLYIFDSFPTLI
T8 sequence (Q9UUU1 22-466): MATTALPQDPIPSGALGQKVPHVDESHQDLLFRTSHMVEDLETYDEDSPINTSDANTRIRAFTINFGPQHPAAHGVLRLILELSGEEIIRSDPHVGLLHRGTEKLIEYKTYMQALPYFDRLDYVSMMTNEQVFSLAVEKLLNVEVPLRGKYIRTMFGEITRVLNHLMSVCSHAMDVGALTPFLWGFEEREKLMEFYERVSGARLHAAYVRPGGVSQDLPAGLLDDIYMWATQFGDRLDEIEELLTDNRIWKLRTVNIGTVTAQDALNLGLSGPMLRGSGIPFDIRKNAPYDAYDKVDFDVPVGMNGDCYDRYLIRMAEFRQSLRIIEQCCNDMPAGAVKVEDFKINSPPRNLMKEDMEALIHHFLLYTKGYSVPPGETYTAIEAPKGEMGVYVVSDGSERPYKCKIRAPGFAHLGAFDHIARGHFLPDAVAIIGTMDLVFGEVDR
T8 sequence (Q9UUT7 28-210): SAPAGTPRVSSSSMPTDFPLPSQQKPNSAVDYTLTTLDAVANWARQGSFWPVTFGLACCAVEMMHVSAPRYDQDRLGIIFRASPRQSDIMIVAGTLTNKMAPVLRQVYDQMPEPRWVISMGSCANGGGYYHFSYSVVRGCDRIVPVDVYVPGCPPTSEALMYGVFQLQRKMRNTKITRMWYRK
Description: as §1

[9] = target: T9, yeast (Y. lipolytica) complex I (Yarrowia lipolytica, UniProt Q9B6E8+Q9UUT7+Q9UUU1); assay: NADH:decylubiquinone oxidoreduction by purified Y. lipolytica complex I; type: biochemical
T9 sequence (Q9B6E8 1-341): T8 sequence (Q9B6E8 1-341)
T9 sequence (Q9UUU1 22-466): T8 sequence (Q9UUU1 22-466)
T9 sequence (Q9UUT7 28-210): T8 sequence (Q9UUT7 28-210)
Description: as §1

| Structure (SMILES) | reduction of sensitivity (human DHODH) | variation in IC50 across cell lines [1] | IC50 [2] [µM] | IC50 [3] [µM] | loss of sensitivity (H292 cells) | IC50 [4] [µM] | higher IC50 value than IACS-2858 (mouse complex I) [fold] | IC50 (mouse complex I; purified mouse complex I ~0.5 nM, 200 μM dQ, 200 μM NADH, 32°C, Hill slope constrained to −1, ± SE) [µM] | IC50 [5] [µM] | IC50 (bovine complex I) [µM] | IC50 (complex I in bovine SMPs [6]; bovine SMPs, succinate oxidation-driven NAD+ reduction rate, ± SE) [µM] | inhibition of RET favoured over FET (complex I in bovine SMPs [6]; bovine heart SMPs, RET versus FET) | IC50 (complex I in bovine SMPs [7]) [µM] | IC50 [8] [µM] | IC50 [9] [µM] |
| --- | --- | --- | --- | --- | --- | --- | --- | --- | --- | --- | --- | --- | --- | --- | --- |
| Cc1c(-c2ccc(-c3ccccc3F)cc2)nc2ccc(F)cc2c1C(=O)O [brequinar] | more than 100 fold |  |  |  |  |  |  |  |  |  |  |  |  |  |  |
| Cc1nc(-c2nc(-c3ccc(OC(F)(F)F)cc3)no2)nn1Cc1cccc(N2CCC(S(C)(=O)=O)CC2)c1 [IACS-010759] |  | up to 230 fold | 0.0069 ± 0.0004 | 0.113 ± 0.004 | up to 70 fold | ~1600 | 17 | 0.0479 | ~22000 | 0.739 ± 0.065 | 0.0123 ± 0.0006 | more than 25 fold | 0.325 ± 0.025 | ~170 | 6.3 ± 0.8 |
